System: K12877-001-R-J1-PDC complex spheroid viability
Assay: Anticancer human tumor K12877-001-R-J1-PDC patient-derived lung adenocarcinoma cell line growth inhibition [RAS]
Conditions: for viability, T/C: stronger effect = lower value
Summary of the method: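 Multi-cell-type spheroids: tumor cells plus HUVEC endothelial cells and mesenchymal stem cells. RAS-pathway inhibitors were combined with targeted agents, each dosed in half-log steps down from clinical Cmax, or from 10 microM when Cmax was unknown.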

[1] = curve of first compound, second compound 0.000949 µM
[2] = curve of first compound, second compound 0.003 µM
[3] = curve of first compound, second compound 0.00949 µM
[4] = curve of first compound, second compound 0.03 µM
[5] = curve of first compound, second compound 0.0949 µM
[6] = curve of first compound, second compound 0.3 µM
[7] = second compound 0.000949 µM, first compound 0.00316 µM
[8] = second compound 0.000949 µM, first compound 0.01 µM
[9] = second compound 0.000949 µM, first compound 0.0316 µM
[10] = second compound 0.000949 µM, first compound 0.1 µM
[11] = second compound 0.000949 µM, first compound 0.316 µM
[12] = second compound 0.000949 µM, first compound 1 µM
[13] = second compound 0.003 µM, first compound 0.00316 µM
[14] = second compound 0.003 µM, first compound 0.01 µM
[15] = second compound 0.003 µM, first compound 0.0316 µM
[16] = second compound 0.003 µM, first compound 0.1 µM
[17] = second compound 0.003 µM, first compound 0.316 µM
[18] = second compound 0.003 µM, first compound 1 µM
[19] = second compound 0.00949 µM, first compound 0.00316 µM
[20] = second compound 0.00949 µM, first compound 0.01 µM
[21] = second compound 0.00949 µM, first compound 0.0316 µM
[22] = second compound 0.00949 µM, first compound 0.1 µM
[23] = second compound 0.00949 µM, first compound 0.316 µM
[24] = second compound 0.00949 µM, first compound 1 µM
[25] = second compound 0.03 µM, first compound 0.00316 µM
[26] = second compound 0.03 µM, first compound 0.01 µM
[27] = second compound 0.03 µM, first compound 0.0316 µM
[28] = second compound 0.03 µM, first compound 0.1 µM
[29] = second compound 0.03 µM, first compound 0.316 µM
[30] = second compound 0.03 µM, first compound 1 µM
[31] = second compound 0.0949 µM, first compound 0.00316 µM
[32] = second compound 0.0949 µM, first compound 0.01 µM
[33] = second compound 0.0949 µM, first compound 0.0316 µM
[34] = second compound 0.0949 µM, first compound 0.1 µM
[35] = second compound 0.0949 µM, first compound 0.316 µM
[36] = second compound 0.0949 µM, first compound 1 µM
[37] = second compound 0.3 µM, first compound 0.00316 µM
[38] = second compound 0.3 µM, first compound 0.01 µM
[39] = second compound 0.3 µM, first compound 0.0316 µM
[40] = second compound 0.3 µM, first compound 0.1 µM
[41] = second compound 0.3 µM, first compound 0.316 µM
[42] = second compound 0.3 µM, first compound 1 µM
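Also: spheroids exposed to agents for one week before readout.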
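For viability, T/C in this document: tumour cells co-cultured with HUVEC and mesenchymal stem cells in spheroids.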

CCN1CCN(Cc2ccc(Nc3ncc(F)c(-c4cc(F)c5nc(C)n(C(C)C)c5c4)n3)nc2)CC1 + CCn1c(-c2cccnc2C(C)OC)c2c3cc(ccc31)N1CCOC(CC(NC(=O)C(C(C)C)N(C)C(=O)C3(F)CCN(C(=O)C#CC(C)(C)N(C)C)CC3)C(=O)N3CCCC(N3)C(=O)OCC(C)(C)C2)C1
IC50 [1]: 286 nM | IC50 [2]: 229 nM | IC50 [3]: 154 nM | IC50 [4]: 146 nM | IC50 [5]: 132 nM | IC50 [6]: 160 nM | viability, T/C [7]: 73.5% | viability, T/C [8]: 80.4% | viability, T/C [9]: 74.3% | viability, T/C [10]: 61.5% | viability, T/C [11]: 50.1% | viability, T/C [12]: 31.5% | viability, T/C [13]: 71.8% | viability, T/C [14]: 76.9% | viability, T/C [15]: 68.8% | viability, T/C [16]: 69.9% | viability, T/C [17]: 42.3% | viability, T/C [18]: 28.9% | viability, T/C [19]: 66% | viability, T/C [20]: 77.1% | viability, T/C [21]: 66.5% | viability, T/C [22]: 56.8% | viability, T/C [23]: 39.2% | viability, T/C [24]: 34% | viability, T/C [25]: 74.2% | viability, T/C [26]: 76.5% | viability, T/C [27]: 69.6% | viability, T/C [28]: 51.8% | viability, T/C [29]: 45.4% | viability, T/C [30]: 36.3% | viability, T/C [31]: 76.8% | viability, T/C [32]: 65.5% | viability, T/C [33]: 58.5% | viability, T/C [34]: 61.6% | viability, T/C [35]: 36.4% | viability, T/C [36]: 25.4% | viability, T/C [37]: 67.2% | viability, T/C [38]: 59.1% | viability, T/C [39]: 59.3% | viability, T/C [40]: 58% | viability, T/C [41]: 39.3% | viability, T/C [42]: 27.4%

C[C@@H](NC(=O)c1ncnc(N)c1Cl)c1ncc(C(=O)Nc2cc(C(F)(F)F)c(Cl)cn2)s1
viability, T/C (compound 0.0316 µM): 110% [middle of 4 runs] | viability, T/C (compound 0.1 µM): 99.7% [middle of 4 runs] | viability, T/C (compound 0.316 µM): 95% [middle of 4 runs] | viability, T/C (compound 1 µM): 103% [middle of 4 runs] | viability, T/C (compound 3.16 µM): 100% [middle of 4 runs] | viability, T/C (compound 10 µM): 95.4% [middle of 4 runs] | IC50 (curve of compound): > 10000 nM

C=CC(=O)N1CCN(c2nc(OCC3CCCN3C)nc3c(F)c(-c4nc(N)cc(C)c4C(F)(F)F)c(Cl)cc23)C(C)C1 (stereo not drawn) + CCn1c(-c2cccnc2C(C)OC)c2c3cc(ccc31)N1CCOC(CC(NC(=O)C(C(C)C)N(C)C(=O)C3(F)CCN(C(=O)C#CC(C)(C)N(C)C)CC3)C(=O)N3CCCC(N3)C(=O)OCC(C)(C)C2)C1
IC50 [1]: > 1000 nM | IC50 [2]: > 1000 nM | IC50 [3]: > 1000 nM | IC50 [4]: > 1000 nM | IC50 [5]: > 1000 nM | IC50 [6]: > 1000 nM | viability, T/C [7]: 82% | viability, T/C [8]: 83% | viability, T/C [9]: 83.5% | viability, T/C [10]: 74.2% | viability, T/C [11]: 76% | viability, T/C [12]: 77.8% | viability, T/C [13]: 78% | viability, T/C [14]: 61.3% | viability, T/C [15]: 73.6% | viability, T/C [16]: 81.1% | viability, T/C [17]: 86% | viability, T/C [18]: 71.1% | viability, T/C [19]: 75.4% | viability, T/C [20]: 83.9% | viability, T/C [21]: 77.5% | viability, T/C [22]: 85.3% | viability, T/C [23]: 85.5% | viability, T/C [24]: 78.6% | viability, T/C [25]: 77.4% | viability, T/C [26]: 76.1% | viability, T/C [27]: 77.6% | viability, T/C [28]: 75.9% | viability, T/C [29]: 81.7% | viability, T/C [30]: 73.3% | viability, T/C [31]: 83.4% | viability, T/C [32]: 70.5% | viability, T/C [33]: 79.7% | viability, T/C [34]: 76.1% | viability, T/C [35]: 73.8% | viability, T/C [36]: 72.8% | viability, T/C [37]: 58.1% | viability, T/C [38]: 67% | viability, T/C [39]: 66.3% | viability, T/C [40]: 68.5% | viability, T/C [41]: 70% | viability, T/C [42]: 66.8%

CC(C)NCC(C(=O)N1CCN(c2ncnc3c2C(C)CC3O)CC1)c1ccc(Cl)cc1 (stereo not drawn) + CCn1c(-c2cccnc2C(C)OC)c2c3cc(ccc31)N1CCOC(CC(NC(=O)C(C(C)C)N(C)C(=O)C3(F)CCN(C(=O)C#CC(C)(C)N(C)C)CC3)C(=O)N3CCCC(N3)C(=O)OCC(C)(C)C2)C1
IC50 [1]: 1260 nM | IC50 [2]: 1280 nM | IC50 [3]: 1430 nM | IC50 [4]: 956 nM | IC50 [5]: 488 nM | IC50 [6]: 170 nM | viability, T/C [9]: 88.5% | viability, T/C [10]: 76.6% | viability, T/C [11]: 80.5% | viability, T/C [12]: 55.5% | viability, T/C (second compound 0.000949 µM, first compound 3.16 µM): 26.7% | viability, T/C (second compound 0.000949 µM, first compound 10 µM): 18.3% | viability, T/C [15]: 80.6% | viability, T/C [16]: 88% | viability, T/C [17]: 67.1% | viability, T/C [18]: 60.6% | viability, T/C (second compound 0.003 µM, first compound 3.16 µM): 26.5% | viability, T/C (second compound 0.003 µM, first compound 10 µM): 19.6% | viability, T/C [21]: 78.5% | viability, T/C [22]: 68.5% | viability, T/C [23]: 82.8% | viability, T/C [24]: 58.7% | viability, T/C (second compound 0.00949 µM, first compound 3.16 µM): 27.9% | viability, T/C (second compound 0.00949 µM, first compound 10 µM): 16% | viability, T/C [27]: 75.7% | viability, T/C [28]: 68.9% | viability, T/C [29]: 81.6% | viability, T/C [30]: 49% | viability, T/C (second compound 0.03 µM, first compound 3.16 µM): 26.8% | viability, T/C (second compound 0.03 µM, first compound 10 µM): 15.9% | viability, T/C [33]: 72.7% | viability, T/C [34]: 73.5% | viability, T/C [35]: 51.8% | viability, T/C [36]: 41.5% | viability, T/C (second compound 0.0949 µM, first compound 3.16 µM): 23.1% | viability, T/C (second compound 0.0949 µM, first compound 10 µM): 12.1% | viability, T/C [39]: 57.8% | viability, T/C [40]: 52.8% | viability, T/C [41]: 46.3% | viability, T/C [42]: 23.5% | viability, T/C (second compound 0.3 µM, first compound 3.16 µM): 19% | viability, T/C (second compound 0.3 µM, first compound 10 µM): 10.6%
